# Reference: PubChem BioAssay (NCI)
#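 Briefly, cells in 96-well plates were exposed to five compound concentrations for 48 h, and endpoints were estimated by linear interpolation. Here, GI50 denotes the concentration required for 50% inhibition of growth. TGI denotes the concentration required for complete inhibition of growth.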
# How the values were obtained:
# Assay in all cases: NCI-60 cell line screen, 48 h
# 786-0 renal = system: 786-0 renal
# A498 renal = system: A498 renal
# A549 NSCLC = system: A549 NSCLC
# ACHN renal = system: ACHN renal
# BT-549 breast = system: BT-549 breast
# CAKI-1 renal = system: CAKI-1 renal
# CCRF-CEM leukemia = system: CCRF-CEM leukemia
# COLO 205 colon = system: COLO 205 colon
# DU-145 prostate = system: DU-145 prostate
# EKVX NSCLC = system: EKVX NSCLC
# HCC-2998 colon = system: HCC-2998 colon
# HCT-116 colon = system: HCT-116 colon
# HCT-15 colon = system: HCT-15 colon
# HL-60(TB) leukemia = system: HL-60(TB) leukemia
# HOP-62 NSCLC = system: HOP-62 NSCLC
# HOP-92 NSCLC = system: HOP-92 NSCLC
# HS 578T breast = system: HS 578T breast
# HT29 colon = system: HT29 colon
# IGROV1 ovarian = system: IGROV1 ovarian
# K-562 leukemia = system: K-562 leukemia
# KM12 colon = system: KM12 colon
# LOX IMVI melanoma = system: LOX IMVI melanoma
# M14 melanoma = system: M14 melanoma
# MALME-3M melanoma = system: MALME-3M melanoma
# MCF7 breast = system: MCF7 breast
# MDA-MB-231 breast = system: MDA-MB-231 breast
# MDA-MB-435 = system: MDA-MB-435
# MOLT-4 leukemia = system: MOLT-4 leukemia
# NCI-H226 lung = system: NCI-H226 lung
# NCI-H23 lung = system: NCI-H23 lung
# NCI-H460 lung = system: NCI-H460 lung
# NCI-H522 lung = system: NCI-H522 lung
# NCI/ADR-RES ovarian = system: NCI/ADR-RES ovarian
# OVCAR-3 ovarian = system: OVCAR-3 ovarian
# OVCAR-4 ovarian = system: OVCAR-4 ovarian
# OVCAR-5 ovarian = system: OVCAR-5 ovarian
# OVCAR-8 ovarian = system: OVCAR-8 ovarian
# PC-3 prostate = system: PC-3 prostate
# RPMI-8226 leukemia = system: RPMI-8226 leukemia
# RXF 393 renal = system: RXF 393 renal
# SF-268 CNS = system: SF-268 CNS
# SF-295 CNS = system: SF-295 CNS
# SF-539 CNS = system: SF-539 CNS
# SK-MEL-2 melanoma = system: SK-MEL-2 melanoma
# SK-MEL-28 melanoma = system: SK-MEL-28 melanoma
# SK-MEL-5 melanoma = system: SK-MEL-5 melanoma
# SK-OV-3 ovarian = system: SK-OV-3 ovarian
# SN12C renal = system: SN12C renal
# SNB-19 CNS = system: SNB-19 CNS
# SNB-75 CNS = system: SNB-75 CNS
# SR leukemia = system: SR leukemia
# SW-620 colon = system: SW-620 colon
# T-47D breast = system: T-47D breast
# TK-10 renal = system: TK-10 renal
# U251 CNS = system: U251 CNS
# UACC-257 melanoma = system: UACC-257 melanoma
# UACC-62 melanoma = system: UACC-62 melanoma
# UO-31 renal = system: UO-31 renal
compound,measurement,setting,value
Cc1cccc2c3c(sc12)C(c1ccc(F)cc1)C(C#N)=C(/N=C/c1ccc(Cl)cc1)O3 (stereo unspecified),GI50,786-0 renal,601 nM
same,TGI,786-0 renal,12500 nM
same,GI50,A498 renal,10600 nM
same,TGI,A498 renal,42000 nM
same,GI50,A549 NSCLC,670 nM
same,TGI,A549 NSCLC,> 100000 nM
same,GI50,ACHN renal,695 nM
same,TGI,ACHN renal,15500 nM
same,GI50,BT-549 breast,907 nM
same,TGI,BT-549 breast,3560 nM
same,GI50,CAKI-1 renal,389 nM
same,TGI,CAKI-1 renal,15200 nM
same,GI50,CCRF-CEM leukemia,404 nM
same,TGI,CCRF-CEM leukemia,> 37300 nM
same,GI50,COLO 205 colon,648 nM
same,TGI,COLO 205 colon,2510 nM
same,GI50,DU-145 prostate,485 nM
same,TGI,DU-145 prostate,19300 nM
same,GI50,EKVX NSCLC,1720 nM
same,TGI,EKVX NSCLC,46100 nM
same,GI50,HCC-2998 colon,414 nM
same,TGI,HCC-2998 colon,2470 nM
same,GI50,HCT-116 colon,384 nM
same,TGI,HCT-116 colon,6300 nM
same,GI50,HCT-15 colon,366 nM
same,TGI,HCT-15 colon,10300 nM
same,GI50,HL-60(TB) leukemia,339 nM
same,TGI,HL-60(TB) leukemia,971 nM
same,GI50,HOP-62 NSCLC,552 nM
same,TGI,HOP-62 NSCLC,15100 nM
same,GI50,HOP-92 NSCLC,2190 nM
same,TGI,HOP-92 NSCLC,15800 nM
same,GI50,HS 578T breast,426 nM
same,TGI,HS 578T breast,10300 nM
same,GI50,HT29 colon,532 nM
same,TGI,HT29 colon,5040 nM
same,GI50,IGROV1 ovarian,632 nM
same,TGI,IGROV1 ovarian,19200 nM
same,GI50,K-562 leukemia,310 nM
same,TGI,K-562 leukemia,14200 nM
same,GI50,KM12 colon,417 nM
same,TGI,KM12 colon,13200 nM
same,GI50,LOX IMVI melanoma,555 nM
same,TGI,LOX IMVI melanoma,6300 nM
same,GI50,M14 melanoma,310 nM
same,TGI,M14 melanoma,8380 nM
same,GI50,MALME-3M melanoma,720 nM
same,TGI,MALME-3M melanoma,23200 nM
same,GI50,MCF7 breast,322 nM
same,TGI,MCF7 breast,14000 nM
same,GI50,MDA-MB-231 breast,700 nM
same,TGI,MDA-MB-231 breast,14800 nM
same,GI50,MDA-MB-435,175 nM
same,TGI,MDA-MB-435,373 nM
same,GI50,MOLT-4 leukemia,476 nM
same,TGI,MOLT-4 leukemia,14200 nM
same,GI50,NCI-H226 lung,434 nM
same,TGI,NCI-H226 lung,2960 nM
same,GI50,NCI-H23 lung,536 nM
same,TGI,NCI-H23 lung,16400 nM
same,GI50,NCI-H460 lung,348 nM
same,TGI,NCI-H460 lung,3560 nM
same,GI50,NCI-H522 lung,91.3 nM
same,TGI,NCI-H522 lung,372 nM
same,GI50,NCI/ADR-RES ovarian,302 nM
same,TGI,NCI/ADR-RES ovarian,3490 nM
same,GI50,OVCAR-3 ovarian,395 nM
same,TGI,OVCAR-3 ovarian,5390 nM
same,GI50,OVCAR-4 ovarian,2270 nM
same,TGI,OVCAR-4 ovarian,20100 nM
same,GI50,OVCAR-5 ovarian,516 nM
same,TGI,OVCAR-5 ovarian,15400 nM
same,GI50,OVCAR-8 ovarian,487 nM
same,TGI,OVCAR-8 ovarian,4180 nM
same,GI50,PC-3 prostate,415 nM
same,TGI,PC-3 prostate,13500 nM
same,GI50,RPMI-8226 leukemia,421 nM
same,TGI,RPMI-8226 leukemia,7690 nM
same,GI50,RXF 393 renal,222 nM
same,TGI,RXF 393 renal,664 nM
same,GI50,SF-268 CNS,1830 nM
same,TGI,SF-268 CNS,16200 nM
same,GI50,SF-295 CNS,339 nM
same,TGI,SF-295 CNS,11600 nM
same,GI50,SF-539 CNS,277 nM
same,TGI,SF-539 CNS,827 nM
same,GI50,SK-MEL-2 melanoma,317 nM
same,TGI,SK-MEL-2 melanoma,17800 nM
same,GI50,SK-MEL-28 melanoma,1430 nM
same,TGI,SK-MEL-28 melanoma,22600 nM
same,GI50,SK-MEL-5 melanoma,488 nM
same,TGI,SK-MEL-5 melanoma,3290 nM
same,GI50,SK-OV-3 ovarian,521 nM
same,TGI,SK-OV-3 ovarian,41900 nM
same,GI50,SN12C renal,597 nM
same,TGI,SN12C renal,12200 nM
same,GI50,SNB-19 CNS,552 nM
same,TGI,SNB-19 CNS,19000 nM
same,GI50,SNB-75 CNS,275 nM
same,TGI,SNB-75 CNS,3630 nM
same,GI50,SR leukemia,317 nM
same,TGI,SR leukemia,13200 nM
same,GI50,SW-620 colon,383 nM
same,TGI,SW-620 colon,13100 nM
same,GI50,T-47D breast,583 nM
same,TGI,T-47D breast,53000 nM
same,GI50,TK-10 renal,20100 nM
same,TGI,TK-10 renal,66200 nM
same,GI50,U251 CNS,423 nM
same,TGI,U251 CNS,8760 nM
same,GI50,UACC-257 melanoma,3810 nM
same,TGI,UACC-257 melanoma,32200 nM
same,GI50,UACC-62 melanoma,354 nM
same,TGI,UACC-62 melanoma,13400 nM
same,GI50,UO-31 renal,572 nM
same,TGI,UO-31 renal,15300 nM
